Laboratory results taken from US11035008B2, “Biomarkers for cancer” (BERGENBIO ASA, priority 2015, dated 2021).
“Also recorded” adds a separate entry of the source.

Assays:
pPLCγ1 = pPLCγ1 in AML cell panel, short term treatment, flow cytometry; type: cell-based, human
Method: (§1) Staining of Cells for Flow Cytometry, General Protocol: • Live cells were centrifuged at 300 G for 5 minutes, washed once with PBS and centrifuged again. Cells were then fixed in 4% PFA in PBS for 10 minutes at 37° C., and resuspended in PBS. Unless processed immediately, samples were at this point stored in PBS at 4° C. (up to three weeks) or at −80° C. (for long-term storage). If intracellular epitopes were stained, cells were permebealized in 90% MeOH for 30 minutes on ice. Unless processed immediately, samples were also be stored in 90% MeOH at −20° C. for up to two months. • Further staining procedure (permebealized or non-permebealized cells): • Cells were washed 1× in PBS and blocked in blocking buffer; either PBS+0.5% BSA or PBS+1:1000 Octagam (5 mg/ml) for 15 minutes at room temperature. Thereafter, cells were incubated with primary AB at the indicated dilutions in incubation buffer (IB, PBS+0.5% BSA) for 1 hour at room temperature. Cells were then washed 3× with IB and incubated with secondary AB (conjugated to a fluorescent flurophore) at 1:1000 dilution in IB for 30 minutes at room temperature. Finally, cells were washed 3× in IB and resuspended in PBS. Cells were analyzed immediately, or stored for up to 24 hours at 4° C. before analysis. • Analysis of cells was done on a BD LSR Fortessa or a BD C6 Accuri flow cytometer, and further processing was done using FlowJo v.7.6. • All incubation steps (but not storage) were done on a spinning wheel or gentle shaker.
(§2) The diversity of AML cells and their responses was investigated using a panel of AML cell lines and assessing their responses after BGB324-treatment.
(§3) When investigating phospho-markers, the cells were starved overnight in the appropriate growth medium containing 0.1% FBS, pre-treated with BGB324 at 0.5 and 1 μM for one hour, and stimulated with 10% FBS for 20 minutes (to induce phosphorylation, with BGB324 present). Cells were then fixed and stained for flow cytometric analyses.

pErk = pErk in AML cell panel, short term treatment, flow cytometry; type: cell-based, human
Method: as §1, §2, §3

MOLM13 cells = assay: IC50 of BGB324 by resazurin assay, MOLM13; type: cell-based; conditions: Homo sapiens, MOLM-13, MOLM13 (responder)
From the text: as §2

PHGDH = PHGDH by western blot in Mv4-11 subcutaneous xenograft tumours; type: in vivo, mice; conditions: for PHGDH in tumour lysates (western blot): Mv4-11 sub-q
Method: Western Blot, General Protocol: • For western blot analysis, cells were lysed on ice using NP-40 lysis buffer with protease- and phosphatase inhibitors. Total protein concentration in lysates was measured using a BCA protein assay kit following the manufacturers instructions. 10% NuPAGE® Bis-Tris precast gels were loaded with 30-50 μg of protein in each well diluted in sample buffer and antioxidant. A 1:1 mix of MagicMark™ XP Western Protein Standard (Invitrogen) and SeeBlue® Plus 2 Pre-Stained Standard was used as protein standard. Gels were run at 50V for 20 min, then at 100V for 1 h 30 min. Blotting was done on ice for 1 h 30 min at 100V onto PVDF (pre-activated with MeOH) or nitrocellulose membranes. Membranes were washed in TBS-0.1% Tween-20 (TBS-T), and blocked in TBS-T 5% BSA for at least 1 h at RT. Primary ABs were added at 1:1000 in TBS-T 5% BSA (rabbit-anti-actin AB was added at 1:2000) in TBS-T 5% BSA, and membranes were incubated over night at 4° C. Membranes were then washed 3× in TBS-T, and incubated in HRP-conjugated secondary ABs at 1:5000 dilution in TBS-T 5% milk for 45 min at RT. Membranes were developed for 1 min using ECL-reagents and imaged with chemiluminescence using a Molecular Imager ChemiDoc™ XRS (BioRad). • All incubation- and washing steps were done on a roller.
To validate the reduction of PHGDH in in vivo samples found by microarray, the PHGDH expression in tumour material from in vivo samples was investigated by western blot. […] Therefore, it was investigated at what time point PHGDH is reduced after treatment with a single high dose of BGB324 100 mg/kg.
Tumours where the mice had been treated with a single lower dose of BGB324, 50 mg/kg, were also examined (tumour material was harvested at different time points, from 4-72 hours).

totSLFN11 = assay: Total SLFN11 in AML cell panel, long-term treatment, flow cytometry; type: cell-based, human
Method: as §1, §2
Long-term treatment was done in complete medium, without starvation. The responders were treated with 0.05, 0.1 or 0.3 μM BGB324, whereas the non-responders were treated with only a single dose of 2.5 μM BGB324. The cells were fixed after 24, 48 or 72 hours, and the samples were stored in 90% MeOH at −20° C. until all samples were harvested, and stained for flow at the same time.

pAxl(Y779) = pAxl(Y779) by flow cytometry in MOLM13 cells (Example 2); type: cell-based, human
Method: as §1
MOLM13 cells were cultured in starvation medium (RPMI, 0.1% FBS) over night and treated with BGB324 at 3 μM for a total of 40 minutes. […] Cells were co-stained with pAxl(Y779) and tAxl (1H12) antibodies. […] When gating for Axl-expressing cells, we saw that the reduction of pAxl signal was only seen in Axl-positive cells, showing that the pAxl antibody appears to be Axl-specific (see FIG. 3).
pAxl was further assessed pAxl by, in the same experimental conditions, examining for phosphorylation of Akt (see above, and FIG. 2), comparing starvation with non-starved cells, and using MOLM13 wt, shAxl and shLuc (cells were co-stained with antibodies for both pAkt and pAxl). MOLM13shAxl were used as a negative control, to separate between background binding of the antibodies and the “real” pAxl-signal. In cells that were not starved, only a slight inhibition of pAxl after treatment was found (around 20% at 3 μM BGB324 dose).

OCI-M1 cells = assay: IC50 of BGB324 by resazurin assay, OCI-M1; type: cell-based; conditions: Homo sapiens, OCI-M1 (non-responder)
From the text: as §2

[1] = MOLM13, all treatment doses, 1 hour
[2] = Mv4-11, all treatment doses, 1 hour

In the case of `Nc1nc(Nc2ccc3c(c2)CC[C@@H](N2CCCC2)CC3)nn1-c1cc2c(nn1)-c1ccccc1CCC2` [BGB324, 1-(6,7-dihydro-5H-benzo[6,7]cyclohepta[1,2-c]pyridazin-3-yl)-N3-((7-(S)-pyrrolidin-1-yl)-6,7,8,9-tetrahydro-5H-benzo[7]annulene-2-yl)-1H-1,2,4-triazole-3,5-diamine], the pPLCγ (pPLCγ1; Kasumi, 1 hour) is reported as “No response in PLCγ”, the pPLCγ (pPLCγ1; [1]) is reported as “significantly reduced” and the pPLCγ (pPLCγ1; [2]) is reported as “significantly reduced”. For the same molecule, the pPLCγ (pPLCγ1; OCI-M1, 1 hour) was “No response in PLCγ”, the pErk (pErk; Kasumi, 1 hour) was “no significant differences in pErk” and the “phosphorylation of Erk” value (pErk; [1]) was “strong and significant reduction”. For the same molecule, the “phosphorylation of Erk” value (pErk; [2]) was “strong and significant reduction”, the pErk (pErk; OCI-M1, 1 hour) was “no significant differences in pErk” and the IC50 (MOLM13 cells) was 450 nM. The “PHGDH in tumours (western blot)” value (PHGDH; Mv4-11, single dose 50 mg/kg, harvested 4-72 hours) was “stable reduction of PHGDH was observed from 16 hours and onwards”, the “PHGDH in tumours (western blot)” value (PHGDH; Mv4-11, single dose 100 mg/kg, 6 hours after treatment) was “not 6 hours after treatment” and the “PHGDH in tumours (western blot)” value (PHGDH; Mv4-11, single dose 100 mg/kg, 8 hours after treatment) was “reduction of PHGDH observed in three parallel tumours”. The “PHGDH in tumour lysates (western blot)” value (PHGDH; 25 mg/kg BID, 50 mg/kg BID or 50 mg/kg QD, 15 days) was “reduction of PHGDH was observed in most of the tumours”, the “PHGDH in tumour lysates (western blot)” value (PHGDH; 100 mg/kg single dose, tumours harvested 6 h after dosing) was “only in one of two tumours” and the SLFN11 expression (totSLFN11; Kasumi, 2.5 μM, 24 and 48 hours) was “no significant differences”. The SLFN11 expression (totSLFN11; Kasumi, 2.5 μM, 72 hours) was “significant increase of SLFN11 expression”, the “total protein expression of SLFN11” value (totSLFN11; MOLM13, 0.3 μM, 24, 48 and 72 hours) was “significant reduction” and the “total protein expression of SLFN11” value (totSLFN11; Mv4-11, 0.1 uM, 72 hours) was “significantly reduced”. The “total protein expression of SLFN11” value (totSLFN11; Mv4-11, 0.3 μM, 24, 48 and 72 hours) was “significant reduction”, the SLFN11 expression (totSLFN11; OCI-AML5, 2.5 μM, 24 and 48 hours) was “no significant differences” and the SLFN11 expression (totSLFN11; OCI-AML5, 2.5 μM, 72 hours) was “significant increase of SLFN11 expression”. The inhibition at 3 µM (pAxl(Y779); Homo sapiens, MOLM-13, MOLM13 not starved (wt, shLuc, shAxl same)) was ~20%, the “inhibition of pAxl” value (pAxl(Y779); MOLM13 shAxl, pre-starved, 3 μM) was “approximately 20%” and the “pAxl(Y779)” value (pAxl(Y779); MOLM13 starved, 3 μM, 40 minutes) was “slight decrease in pAxl; also recorded: modest reduction of pAxl”. The “total reduction of pAxl” value (pAxl(Y779); MOLM13 wt and shLuc, pre-starved, 3 μM) was 40% and the IC50 (OCI-M1 cells) was 1800 nM.
